Experimental data published in US11952384B2, “Anti-tumor compound and preparation method and use thereof” (DUALITY BIOLOGICS (SUZHOU) CO., LTD., priority 2020, dated 2024).
Read-outs that look alike come from different tables or passages of the source.

How the values were obtained:
[1] = target: T1, BCRP (Homo sapiens, UniProt Q9UNQ0); settings: Caco-2
T1 sequence (Q9UNQ0 1-655): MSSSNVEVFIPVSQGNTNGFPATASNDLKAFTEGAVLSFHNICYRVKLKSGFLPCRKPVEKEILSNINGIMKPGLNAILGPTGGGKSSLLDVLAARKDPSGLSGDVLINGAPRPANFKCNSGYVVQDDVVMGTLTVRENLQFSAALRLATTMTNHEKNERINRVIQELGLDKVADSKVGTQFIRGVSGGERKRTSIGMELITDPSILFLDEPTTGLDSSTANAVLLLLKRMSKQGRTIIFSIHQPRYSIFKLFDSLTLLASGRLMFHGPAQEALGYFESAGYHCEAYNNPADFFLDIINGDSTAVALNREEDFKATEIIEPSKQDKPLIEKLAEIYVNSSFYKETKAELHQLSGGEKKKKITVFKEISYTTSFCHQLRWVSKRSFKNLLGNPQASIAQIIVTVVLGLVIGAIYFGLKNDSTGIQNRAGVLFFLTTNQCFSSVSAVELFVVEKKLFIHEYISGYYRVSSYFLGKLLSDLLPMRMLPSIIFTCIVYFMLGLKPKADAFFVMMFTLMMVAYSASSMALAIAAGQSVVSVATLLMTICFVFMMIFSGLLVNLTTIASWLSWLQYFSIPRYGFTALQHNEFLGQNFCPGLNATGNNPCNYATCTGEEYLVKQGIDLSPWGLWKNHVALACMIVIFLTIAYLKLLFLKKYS
Experimental: (§5) To investigate whether the compounds of the present invention is a substrate for efflux transporters P-gp and BCRP in a Caco-2 cell model, thereby providing preclinical basis for analyzing the drug-drug interaction in pharmacokinetics.
(§6) • 1) Cell culture medium was added to each well of the Transwell. The HTS Transwell plate was incubated under conditions of 37° C. and 5% CO2 for 1 h prior to cell inoculation. • 2) Caco-2 cells were diluted with culture medium and the cell suspension was dispensed into filter wells of the 96-well HTS Transwell plate. […] The cell culture medium was changed periodically. • 3) Monolayer cell resistance was measured using the Millicell Epithelial Volt-Ohm detection system. The resistance of each well was recorded. After all wells were measured, the Transwell plate was put back into the incubator. TEER of each well was calculated according to the formula. The TEER value of each well should be greater than 230 ohm·cm^2. […] Preparation for Transporter Test • 1) The Caco-2 plate was taken out from the incubator. The monolayer cells were washed with pre-heated HBSS twice. The plate was then incubated at 37° C. for 30 min. • 2) Stock solutions of the compounds were prepared in DMSO and diluted with HBSS to obtain working solutions. Digoxin was used as a reference substrate for P-gp and rosuvastatin was used as a reference substrate for BCRP. Propranolol was used as a high permeability marker. • 3) The working solution (without inhibitor) was added to the Transwell insert (apical compartment) to determine the rate of drug transport in the apical to basolateral direction. The transfer buffer was added to the wells in the receiver plate (basolateral compartment). The working solution (without inhibitor) was added to the receiver plate wells (basolateral compartment) to determine the rate of drug transport in the basolateral to apical direction. The Transwell insert (apical compartment) was filled with the transport buffer. PSC833 was added to the apical and basolateral compartments to determine the rate of drug transport in the presence of P-gp inhibitors. • 4) The sample was transferred from the working solution to the quenching solution, and a sample with a time of 0 was prepared. The Transwell plate was incubated under conditions of 37° C. and 5% CO2 for 2 h. • 5) At the end of the transport cycle, the samples were transferred from the apical and basolateral wells into a new 96-well plate. Cold acetonitrile or methanol containing the appropriate internal standard (IS) was added to each well of the plate. The plate was vortexed for 10 min. The samples were centrifuged. The supernatant of an aliquot was mixed with an appropriate amount of ultrapure water (depending on the LC-MS/MS signal response and peak shape) prior to the LC-MS/MS analysis. • 6) The stock solution of lucifer yellow in DMSO was prepared and diluted with HBSS to determine the amount of lucifer yellow leakage after a 2-hour transport period. The lucifer yellow solution was added to the apical compartment. HBSS was added to the basolateral compartment. The plate was incubated at 37° C. for 30 min, and a certain amount of the solution was directly taken from the apical and basolateral wells and transferred to a new 96-well plate. The lucifer yellow fluorescence was measured in a fluorescence plate reader with 485 nm excitation and 530 nm emission (to monitor monolayer integrity).
(§7) Data were calculated using Microsoft Excel. The percentage of the compound remaining at each time point was estimated by determining the peak area ratio from the extracted ion chromatogram.
(§8) For drug transport analysis in the Caco-2 cell model, the apparent permeability coefficient (Papp) can be calculated according to the following formula, in cm/s:
(§9) [formula] • wherein the concentration C is in nM, the volume V is in μL, the time T is in s, and the area S is in cm^2.
(§10) The recovery rate is calculated according to the following formula:

[2] = target: T1, BCRP; assay: in vitro
Experimental: as §5, §6, §7, §8, §9, §10

[3] = target: T1, BCRP; assay: Study on transporter substrates in Caco-2 cell model; settings: human, Caco-2
Experimental: as §5, §6, §7, §8, §9, §10

[4] = system: JIMT-1 cells; assay: Inhibition of in vitro proliferation of tumor cells by compounds (CTG, 6 days); format: cell-based; settings: Table 1, Test Example 2.1, small molecule fragments, 6 days of culture, CTG, read-out: JIMT-1 IC50
Experimental: (§1) To test the inhibitory activity of the pharmaceutical compounds on the in vitro proliferation of NCI-N87, JIMT-1 and MBA-MB-231 tumor cells. The cells were treated with the compounds at different concentrations in vitro, and after 6 days of culture, the proliferation of cells was detected using the CTG (CellTiter-Glo® Luminescent Cell Viability Assay, Promega, Cat. No. G7558) reagent, and the in vitro activity of the compounds was evaluated according to the IC50 value.
(§2) In the following, the test for the inhibition of the in vitro proliferation of NCI-N87 cells was taken as an example to illustrate the method of the present application for testing the inhibitory activity of the compounds of the present application on the in vitro proliferation of tumor cells. The method was also applicable to, but not limited to, the test for the inhibitory activity on the in vitro proliferation of other tumor cells. • 1. Culturing of cells: NCI-N87 cells were cultured in RPMI-1640 medium containing 10% FBS. • 2. Preparation of cells: NCI-N87 cells in logarithmic phase were taken, washed with PBS once, and digested with 2-3 mL of trypsin for 2-3 min. After the cells were digested completely, 10-15 mL of cell culture was added to elute the digested cells. The eluate was centrifuged at 1000 rpm for 5 min, and the supernatant was discarded. The resulting cells were resuspended in 10-20 mL of cell culture to obtain a single cell suspension. • 3. Cell plating: the NCI-N87 single cell suspension was mixed well and adjusted to a viable cell density of 6×10^4 cells/mL with cell culture. The cell suspension with the adjusted density was mixed well and added to a 96-well cell culture plate at 50 μL/well. The culture plate was incubated in an incubator for 18 h (37° C., 5% CO2). • 4. Preparation of compounds: the compounds were dissolved in DMSO to obtain stock solutions at an initial concentration of 10 mM. There were 8 concentrations in total for the small molecule compounds: 300 nM, 100 nM, 30 nM, 10 nM, 3 nM, 1 nM, 0.3 nM, and 0.1 nM. • 5. Sample adding: the prepared samples to be detected at different concentrations were added to the culture plate, and two duplicate wells were set for each sample. The culture plate was incubated in an incubator for 6 days (37° C., 5% CO2). • 6. Color developing: the 96-well cell culture plate was taken out, added with the CTG reagent at 50 μL/well, and incubated at room temperature for 10 min. • 7. Plate reading: the 96-well cell culture plate was taken out, placed in a microplate reader, and measured for the chemiluminescence using the microplate reader. Data Analysis
(§3) Data were processed and analyzed using Microsoft Excel and Graphpad Prism 5.
(§4) To test the inhibitory activity of the pharmaceutical compounds on the in vitro proliferation of NCI-N87, JIMT-1 and MBA-MB-231 tumor cells. The cells were treated with compounds at different concentrations in vitro, and after 6 days of culture, the proliferation of cells was detected using CTG (CellTiter-Glo® Luminescent Cell Viability Assay, Promega, Cat. No. G7558) reagents, and the in vitro activity of the compounds was evaluated according to the IC50 value. • 1. Culturing of cells: NCI-N87/JIMT-1/MBA-MB-231 cells were cultured in RPMI-1640 medium containing 10% FBS. • 2. Preparation of cells: NCI-N87/JIMT-1/MBA-MB-231 cells in logarithmic phase were taken, washed with PBS once, and digested with 2-3 mL of trypsin for 2-3 min. After the cells were digested completely, 10-15 mL of cell culture was added to elute the digested cells. The eluate was centrifuged at 1000 rpm for 5 min, and the supernatant was discarded. The resulting cells were resuspended in 10-20 mL of cell culture to obtain a single cell suspension. • 3. Cell plating: the NCI-N87/JIMT-1/MBA-MB-231 single cell suspension was mixed well and adjusted to a viable cell density of 6×10^4 cells/mL with cell culture. […]

[5] = system: NCI-N87 cells; assay: as above; format: cell-based; settings: small molecule fragments, 6 days of culture, CTG, read-out: NCI-N87 IC50
Experimental: as §1, §2, §3, §4

[6] = target: T2, P-gp (Homo sapiens, UniProt P08183); assay: Study on transporter substrates in Caco-2 cell model; format: in vitro ADME; settings: Caco-2
T2 construct: endogenous in cells; host or cells: Caco-2
T2 sequence (P08183 whole entry): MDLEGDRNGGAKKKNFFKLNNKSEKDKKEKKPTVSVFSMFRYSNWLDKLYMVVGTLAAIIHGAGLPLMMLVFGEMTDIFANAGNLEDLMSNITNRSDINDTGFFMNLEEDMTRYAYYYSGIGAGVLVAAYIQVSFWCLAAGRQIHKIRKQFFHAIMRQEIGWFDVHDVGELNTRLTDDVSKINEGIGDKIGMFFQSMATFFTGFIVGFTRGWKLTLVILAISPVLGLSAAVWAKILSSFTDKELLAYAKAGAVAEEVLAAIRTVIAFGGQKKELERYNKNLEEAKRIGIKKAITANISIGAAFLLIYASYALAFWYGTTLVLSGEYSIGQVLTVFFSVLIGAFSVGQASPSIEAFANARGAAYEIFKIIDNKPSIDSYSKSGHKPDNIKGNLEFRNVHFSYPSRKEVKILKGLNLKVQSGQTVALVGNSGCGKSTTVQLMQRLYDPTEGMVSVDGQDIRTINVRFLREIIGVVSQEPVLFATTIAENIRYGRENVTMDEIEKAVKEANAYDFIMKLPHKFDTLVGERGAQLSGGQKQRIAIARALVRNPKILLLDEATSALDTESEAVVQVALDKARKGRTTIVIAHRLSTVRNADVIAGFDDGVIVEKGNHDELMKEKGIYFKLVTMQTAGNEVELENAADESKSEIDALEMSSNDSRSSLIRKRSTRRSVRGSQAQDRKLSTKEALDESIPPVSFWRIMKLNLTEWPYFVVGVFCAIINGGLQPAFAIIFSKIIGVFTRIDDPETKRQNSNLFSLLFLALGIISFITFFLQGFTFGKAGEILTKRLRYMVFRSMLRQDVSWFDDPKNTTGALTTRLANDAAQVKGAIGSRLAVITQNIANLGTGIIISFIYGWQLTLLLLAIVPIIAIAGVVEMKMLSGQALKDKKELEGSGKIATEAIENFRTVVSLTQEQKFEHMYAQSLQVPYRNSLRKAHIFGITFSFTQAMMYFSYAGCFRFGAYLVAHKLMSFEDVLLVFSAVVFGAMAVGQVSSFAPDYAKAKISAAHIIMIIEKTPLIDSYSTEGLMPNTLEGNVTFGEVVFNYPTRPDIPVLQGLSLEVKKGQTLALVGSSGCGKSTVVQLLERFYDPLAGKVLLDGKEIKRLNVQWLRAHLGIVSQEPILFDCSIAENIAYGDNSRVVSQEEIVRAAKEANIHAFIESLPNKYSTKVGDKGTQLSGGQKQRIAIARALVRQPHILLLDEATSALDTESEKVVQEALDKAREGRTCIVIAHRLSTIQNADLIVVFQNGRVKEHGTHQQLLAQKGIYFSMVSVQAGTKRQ
Experimental: The resistance of each well was recorded. […] 2. […] The plate was vortexed for 10 min. The samples were centrifuged. […] HBSS was added to the basolateral compartment. […] 3. Data Analysis
Data were calculated using Microsoft Excel.

[7] = system: MDA-MB-231 cells; assay: Inhibition of in vitro proliferation of tumor cells by compounds (CTG, 6 days); format: cell-based; settings: Homo sapiens, MDA-MB-231, 144 h, Table 3, Test Example 2.3; small molecule fragments; 6 days of culture, CTG; read-out: MDA-MB-231 IC50
Experimental: To test the inhibitory activity of the pharmaceutical compounds on the in vitro proliferation of NCI-N87, JIMT-1 and MBA-MB-231 tumor cells. The cells were treated with compounds at different concentrations in vitro, and after 6 days of culture, the proliferation of cells was detected using CTG (CellTiter-Glo® Luminescent Cell Viability Assay, Promega, Cat. No. G7558) reagents, and the in vitro activity of the compounds was evaluated according to the IC50 value. • 1. Culturing of cells: NCI-N87/JIMT-1/MBA-MB-231 cells were cultured in RPMI-1640 medium containing 10% FBS. • 2. Preparation of cells: NCI-N87/JIMT-1/MBA-MB-231 cells in logarithmic phase were taken, washed with PBS once, and digested with 2-3 mL of trypsin for 2-3 min. After the cells were digested completely, 10-15 mL of cell culture was added to elute the digested cells. The eluate was centrifuged at 1000 rpm for 5 min, and the supernatant was discarded. The resulting cells were resuspended in 10-20 mL of cell culture to obtain a single cell suspension. • 3. Cell plating: the NCI-N87/JIMT-1/MBA-MB-231 single cell suspension was mixed well and adjusted to a viable cell density of 6×10^4 cells/mL with cell culture. The cell suspension with the adjusted density was mixed well and added to a 96-well cell culture plate at 50 μL/well. The culture plate was incubated in an incubator for 18 h (37° C., 5% CO2). • 4. Preparation of compounds: the compounds were dissolved in DMSO to obtain stock solutions at an initial concentration of 10 mM. There were 8 concentrations in total for the small molecule compounds: 300 nM, 100 nM, 30 nM, 10 nM, 3 nM, 1 nM, 0.3 nM, and 0.1 nM. • 5. Sample adding: the prepared samples to be detected at different concentrations were added to the culture plate, and two duplicate wells were set for each sample. The culture plate was incubated in an incubator for 6 days (37° C., 5% CO2). • 6. Color developing: the 96-well cell culture plate was taken out, added with the CTG reagent at 50 μL/well, and incubated at room temperature for 10 min. • 7. Plate reading: the 96-well cell culture plate was taken out, placed in a microplate reader, and measured for the chemiluminescence using the microplate reader. Data analysis: data were processed and analyzed using Microsoft Excel and Graphpad Prism 5.

[8] = system: Colo205 cells; assay: as above; format: cell-based; settings: Homo sapiens, COLO 205, 144 h, Table 4, Test Example 2.4, small molecule fragments, 6 days of culture
Experimental: To test the inhibitory activity of the pharmaceutical compounds on the in vitro proliferation of NCI-N87 and Colo205 tumor cells. The cells were treated with compounds at different concentrations in vitro, and after 6 days of culture, the proliferation of cells was detected using CTG (CellTiter-Glo® Luminescent Cell Viability Assay, Promega, Cat. No. G7558) reagents, and the in vitro activity of the compounds was evaluated according to the IC50 value. • 1. Culturing of cells: NCI-N87/Colo205 cells were cultured in RPMI-1640 medium containing 10% FBS. • 2. Preparation of cells: NCI-N87/Colo205 cells in logarithmic phase were taken, washed with PBS once, and digested with 2-3 mL of trypsin for 2-3 min. After the cells were digested completely, 10-15 mL of cell culture was added to elute the digested cells. The eluate was centrifuged at 1000 rpm for 5 min, and the supernatant was discarded. […] Sample adding: the prepared samples to be detected at different concentrations were added to the culture plate, and two duplicate wells were set for each sample. […] Plate reading: the 96-well cell culture plate was taken out, placed in a microplate reader, and measured for the chemiluminescence using the microplate reader. Data analysis: data were processed and analyzed using Microsoft Excel and Graphpad Prism 5.

With `CC[C@@]1(O)C(=O)OCc2c1cc1n(c2=O)Cc2c-1nc1cc(F)c(C)c3c1c2[C@@H](N1CCC(O)C1=O)CC3` (some centres unmarked) [P-I-1] the “Papp (A-B) (10^−6, cm/s)” value [1] was 0.21 10^−6, cm/s, the “Papp (B-A) (10^−6, cm/s)” value [1] was 4.94 10^−6, cm/s and the Papp A→B at 2 h ([2]; Caco-2, Papp (A-B) (10^−6, cm/s)) was 0.13 ×10⁻⁶ cm/s. For the same molecule, the Papp B→A at 2 h ([2]; Caco-2, Papp (B-A) (10^−6, cm/s)) was 4.06 ×10⁻⁶ cm/s, the efflux ratio at 2 h ([3]; Caco-2, Efflux ratio, KO143 −) was 32.4 and the recovery at 2 h ([3]; Caco-2, Recovery rate (%) AP-BL, KO143 −) was 80.5%. For the same molecule, the recovery at 2 h ([3]; Caco-2, Recovery rate (%) BL-AP, KO143 −) was 76.1%, the recovery at 2 h ([3]; Caco-2, with KO143 (concentration not stated), Recovery rate (%) AP-BL, KO143 +) was 81.5% and the recovery at 2 h ([3]; Caco-2, with KO143 (concentration not stated), Recovery rate (%) BL-AP, KO143 +) was 80.3%. The IC50 ([4]; Homo sapiens, JIMT-1, 144 h) was 23.7 nM, the IC50 [4] was 21.8 nM and the IC50 ([5]; Homo sapiens, NCI-N87, 144 h, Table 1, Test Example 2.1) was 97.3 nM. The IC50 ([5]; Table 1, Test Example 2.1) was 61.6 nM and the P-gp substrate [6] was “neither transporter P-gp substrates nor transporter BCRP substrates”.
Work on `CC[C@@]1(O)C(=O)OCc2c1cc1n(c2=O)Cc2c-1nc1cc(F)c(C)c3c1c2[C@@H](NC(=O)C[C@H](C)O)CC3` [P-III-30, (S)-N-((1S,9S)-9-ethyl-5-fluoro-9-hydroxy-4-methyl-10,13-dioxo-2,3,9,10,13,15-hexahydro-1H,12H-benzo[de]pyrano[3′,4′:6,7]indolizino[1,2-b]quinolin-1-yl)-3-hydroxybutanamide] yielded an IC50 [7] of 28.5 nM, an IC50 ([5]; Homo sapiens, NCI-N87, 144 h, Table 4, Test Example 2.4) of 3 nM and an IC50 [8] of 9 nM.
